Laboratory results published in US20220040304A1, “A COMPOSITION FOR CANCER CELL DEATH AND ITS USE” (Industry-University Cooperation Foundation Hanyang …, priority 2018, published 2022).
Where “and” joins values, the source holds several entries; their conditions need not be identical. Equal values may be shown once.

Key:
[1] = test system: MCF-7 cells; assay: MTT colorimetric change and cell viability after reaction with Co-h substrate; assay type: cell-based, human; details: MCF-7, protein 10 μM 24 hours, Co-h 150 μM, without light irradiation
Experimental: MCF-7 cells were seeded at 5×10^5 cells/mL in a 96-well plate (SPL Cell Culture Plate, 96 well (SPL, Cat #30096)), and cultured at 37° C. for 24 hours (overnight).
After the culture for 24 hours, the cells were washed with FBS & Phenol red-free media (RPMI), and 100 μL of an FBS-free medium containing the purified protein (final concentration: 10 μM) was added, followed by reaction at 37° C. for 24 hours.
After the reaction for 24 hours, the cells were washed with FBS & Phenol red-free media (RPMI), and then 100 μL of FBS & Phenol red-free media (RPMI) containing a Co-h substrate solution (final concentration: 150 μM) was added. The cells were washed with FBS & Phenol red-free media (RPMI), and 100 μL of fresh FBS & Phenol red-free media (RPMI) were then added.
10 μL of 3-(4,5-dimethylthiazol-2-yl)-2,5-diphenyltetrazolium bromide (MTT) (final concentration: 1×) was added, followed by reaction at 37° C. for 4 hours. After 100 μL of a supernatant was removed, 100 μL of DMSO was added, followed by reaction for 10 minutes. The colorimetric change of MTT according to a protein type treated to the cells and the light irradiation time was checked, and then cell viability was confirmed by measuring the absorbance intensity at 570 nm using a plate reader. […]

[2] = test system: singlet oxygen; assay: ROS generation: singlet oxygen measured by decrease of ADPA fluorescence; assay type: biochemical
Experimental: A ROS-generating effect of the RLuc8-MS protein was confirmed using 100 μL of buffer (50 mM HEPES-KOH, 24° C., pH 7.4) containing RLuc8-MS protein (final concentration: 10 μM), anthracene-9,10-dipropionic acid (ADPA, Abcam., UK; final concentration: 50 μM) whose fluorescence intensity decreases in the presence of singlet oxygen, flavin mononucleotide (FMN) (final concentration: 150 μM) and a Co-h substrate solution. The rate of decrease in fluorescence intensity was measured at the excitation wavelength of 380 nm and the emission wavelength of 430 nm of ADPA using a plate reader.
a ROS-generating effect of the RLuc8-MS protein was measured using RLuc8-MS (final concentration: 10 μM) and ADPA (final concentration: 50 μM) whose fluorescence intensity decreases in the presence of singlet oxygen.
Here, the active oxygen generation rate of each protein was measured using 100 μL of buffer (50 mM HEPES-KOH, 24° C., pH 7.4) containing FMN (final concentration: 150 μM) and a Co-h substrate solution (final concentration: 150 μM).
The rate of decrease in fluorescence intensity was measured at the excitation wavelength of 370 nm and the emission wavelength of 420 nm of DHE using a plate reader. In addition, the rate of decrease in fluorescence intensity was measured at the excitation wavelength of 380 nm and the emission wavelength of 430 nm of ADPA using a plate reader.
(§1) A ROS generation rate was measured using 100 μL of buffer (50 mM HEPES-KOH, 24° C., pH 7.4) containing the KR protein, RLuc8.6-KR protein (final concentration: 10 μM) and ADPA (final concentration: 50 μM) whose fluorescence intensity decreases in the presence of singlet oxygen.
(§2) A ROS generation rate was measured using 100 μL of buffer (50 mM HEPES-KOH, 24° C., pH 7.4) containing MS, RLuc8-MS (final concentration: 10 μM), ADPA (final concentration: 50 μM) whose fluorescence intensity decreases in the presence of singlet oxygen and FMN (final concentration: 150 μM).
After irradiation with light at 10 mW/cm^2 for 30 minutes, the rate of decrease in fluorescence intensity was measured at the excitation wavelength of 380 nm and the emission wavelength of 430 nm of ADPA using a plate reader.
as §1, with “oxygen and a Co-h substrate solution (final concentration: 150 μM).” for “oxygen.”
as §2, with “oxygen,” for “oxygen and”, “150 μM) and a Co-h substrate solution (final concentration: 150” for “150”
The rate of decreasing fluorescence intensity was measured at the excitation wavelength of 380 nm and the emission wavelength of 430 nm of ADPA using a plate reader. […]

[3] = Fluorescence assay of purified proteins (excitation/emission); assay type: physicochemical; details: protein 10 μM in 1×PBS
Experimental: 100 μL of buffer (1×PBS) containing the protein purified in Example 1 (final concentration: 10 μM) was dispensed into a 96-well plate (SPL Cell Culture Plate, 96 well (SPL, Cat #32096)). Afterward, a fluorescence signal level was detected by fluorescence assay using a Thermo Scientific™ Varioskan™ Flash Multimode Reader.

Substance | cell viability / colorimetric change of MTT with reaction time with Co-h [1] | singlet oxygen generation rate after Co-h substrate reaction ([2]; Co-h 150 μM, 30-min reaction, without light irradiation, protein 10 μM, ADPA) | Co-h concentration until which the singlet oxygen generation rate increased, then constantly maintained ([2]; protein 10 μM, ADPA 50 μM, FMN 150 μM, substrate reaction time 5 minutes) [µM] | reaction time with Co-h until which the singlet oxygen generation rate increased, then constantly maintained ([2]; protein 10 μM, Co-h 150 μM, ADPA) [min] | emission wavelength (fluorescence) [3] | excitation wavelength [3] [nm] | singlet oxygen generation rate after light irradiation ([2]; 10 mW/cm^2, 30 minutes, no substrate, protein 10 μM, ADPA) | singlet oxygen generation rate by Co-h reaction after ROS scavenger treatment ([2]; RLuc8-MS 10 μM, Co-h 150 μM 30 minutes, SOD 800 U/ml, sodium azide 100 mM or D-mannitol 100 mM)
RLuc8-MS: fusion protein of RLuc8 and MiniSOG without lead peptide, 53 kDa | the staining becomes pink | highest singlet oxygen generation rate | 150 | 20 |  |  |  | 
MS: first protein MiniSOG, ROS-generating protein (singlet oxygen), expressed from pRSET-MiniSOG, 13 kDa [reference compound] | the staining becomes pink |  |  |  | 500 nm and 528 nm | 448 | higher singlet oxygen generation rate | lowest when sodium azide was treated
